Test results: patent EP0231622B1, “Inhibition of the 5-lipoxygenase pathway” (priority 1985, dated 1987)
Read-outs that look alike come from different tables or passages of the source. Marks after values point to notes of the source that are not given here.

Key:
[1] = tested on: Production of PGE₂ by Mouse Peritoneal Exudate Cells; assay: PGE2 production by peritoneal macrophages; assay type: cell-based
Method: (§1) For in vitro experiments, compounds were dissolved at appropriate concentrations in ethanol or DMSO (dimethylsulfoxide) (final concentration <1.0%) and then diluted to final concentrations using the buffers indicated in the text.
Mice were injected intraperitoneally with 350 »g Corynebacterium parvum and the peritoneal exudate cell population was harvested 12-14 days later by peritoneal lavage with cold phosphate-buffered saline, and resuspended in Eagles minimal essential medium supplemented with 5% fetal calf serum. […] Test compounds were added (100 ul) to bring the final volume to 1.0 ml. Lipopolysaccharide (5 »g/ml) was then added to stimulate PGE₂ synthesis. After incubation at 37°C for 2 hours, cell-free supernatants were harvested, placed in polypropylene tubes and frozen at -20°C until assayed for their PGE₂ content using a commercial radioimmunoassay kit. IC₅₀ is the concentration that inhibits 50% of control activity.

[2] = tested on: Polymorphonuclear Leukocytes; assay: Mouse Carrageenan Peritonitis (PMN infiltration); assay type: in vivo, Balb/c mice
Excerpt: (§2) In the following Examples where mice were used, they were male Balb/c mice (20-28 g), and where rats were used, they were male Lewis rats (180-210 g). All mice and rats were obtained from Charles River Breeding Laboratories, Kingston, N.Y. Within a single experiment, mice and rats were sex and age matched.
(§3) The compounds of Formula (IA) were used either as the free base or in the appropriate salt form. Levamisole was used as the hydrochloride salt. The compounds were homogenized in 0.5% tragacanth. Compounds were administered by gavage at the indicated dose in a final volume of 10 ml/kg. Nordihydroguaiaretic acid (NDGA) was solubilized in dimethylacetamide and diluted with olive oil for subcutaneous administration.
Mice were pretreated with either the test compound or vehicle one hour before the intraperitoneal injection of a 1.0% carrageenan suspension in saline (0.2 ml/ mouse). Mice were sacrificed by cervical dislocation two hours after injection, and 3.0 ml of phosphate buffered saline, without Ca⁺⁺ or Mg⁺⁺, was injected into the peritoneum. Following massage, a 2.0 ml aliquot of the lavage fluid was removed, and the total cell count determined on a Coulter counter and differential cell count determined by microscopic examination of Giesma-stained slides.

5-LO = target: T1, 5-LO (Rattus norvegicus, UniProt P12527); assay: di-HETE production by RBL-1 high speed supernatant; assay type: biochemical; settings: Table 9A; di-HETE production by RBL-1 high speed supernatant; read-out: 5-LO IC50
T1 construct: The activities of these enzymes in extracts of RBL-1 cells were assayed; host or cells: RBL-1 cells, disrupted by nitrogen cavitation; 10,000 x g or 100,000 x g supernatant
T1 sequence (P12527 1-673): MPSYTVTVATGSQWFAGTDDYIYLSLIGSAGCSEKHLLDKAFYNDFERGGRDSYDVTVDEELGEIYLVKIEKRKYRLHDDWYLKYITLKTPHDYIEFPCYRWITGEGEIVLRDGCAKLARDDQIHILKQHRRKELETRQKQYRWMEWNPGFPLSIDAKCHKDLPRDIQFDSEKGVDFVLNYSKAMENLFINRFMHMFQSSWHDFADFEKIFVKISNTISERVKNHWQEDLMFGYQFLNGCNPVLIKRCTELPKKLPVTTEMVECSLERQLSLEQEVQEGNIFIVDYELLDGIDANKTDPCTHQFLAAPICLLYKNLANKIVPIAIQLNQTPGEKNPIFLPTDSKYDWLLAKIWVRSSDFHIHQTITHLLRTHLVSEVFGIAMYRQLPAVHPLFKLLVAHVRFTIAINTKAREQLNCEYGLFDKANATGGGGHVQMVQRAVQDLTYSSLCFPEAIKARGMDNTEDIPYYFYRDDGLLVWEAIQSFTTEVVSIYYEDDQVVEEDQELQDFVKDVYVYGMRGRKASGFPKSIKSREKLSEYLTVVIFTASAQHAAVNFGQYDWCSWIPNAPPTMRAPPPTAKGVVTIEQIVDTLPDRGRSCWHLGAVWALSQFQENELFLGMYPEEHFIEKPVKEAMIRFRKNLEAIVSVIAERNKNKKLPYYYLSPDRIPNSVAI
Method: as §1
(§4) The activities of these enzymes in extracts of RBL-1 cells were assayed using the method of Jakschik and Lee, Nature, 287, 51-52 (1980). RBL-1 cells were obtained from the American Type Culture Collection (#CRL 1378) and were grown at 37°C (5% CO₂ in air) in spinner culture in MEM supplemented with 10% heat inactivated fetal calf serum. Harvested cells were washed with 50 mM sodium phosphate buffer, pH 7.0, containing 1 mM EDTA and 0.1% gelatin, resuspended in fresh buffer (5 x 10⁷ cells/ml) and disrupted by nitrogen cavitation using the Parr bomb at 750 psi for 10 min. The broken cell extract was then centrifuged at 10,000 x g for 20 minutes and the supernatant centrifuged at 100,000 x g for 60 minutes. Aliquots (0.25 mls) of the supernatant were preincubated with or without drugs for 10 min, after which 10 ul CaCl₂ (50 mM) was added and the reaction was initiated with 2.5 ul of 2.5 mM arachidonic acid-1-¹⁴C (final concentration was […]; specific activity 20,000 dpm/nmole). After incubation for 3 min at 37°C, the reaction was terminated by addition of 2 volumes (0.5 ml) ice cold acetone and the sample was allowed to deproteinize on ice for 10 min prior to centrifugation at 1,000 x g for 10 min. The deproteinized supernatant was adjusted to pH 3.5 with 2N formic acid and extracted with 2 volumes of ice cold ethyl acetate. The extracted samples were dried under argon, redissolved in ethyl acetate and applied to Whatman LK5D thin layer chromatography (TLC) plates which were developed using the A-9 solvent system [organic phase of ethyl acetate: 2,2,5-trimethylpentane:acetic acid: water (110:50:20:10)] described by Hamberg and Samuelsson, J. Biol. Chem., 241, 257-263 (1966). Arachidonic acid, 5-HETE, di-HETE and PGD₂ were quantified with a Berthold LB 2832 autoscanner.
(§5) The 5-lipoxygenase and LTA₄ synthetase activities were further studied under the following conditions. An additional centrifugation of the RBL-1 supernatant was run at 100,000 x g for 60 min, to remove the particulate cyclooxygenase activity. Sample incubation was done under conditions similar to those described above, i.e., 2 mM CaCl₂ and 25 uM arachidonic acid-1-¹⁴C, however, with an incubation time of 5 min at […]. Under these conditions, only the 5-lipoxygenase pathway metabolites were detectable. The 5-HETE and di-HETEs were formed at a linear rate, and […] amounts of the arachidonic acid-1-¹⁴C substrate were utilized.

5-Lipoxygenase = target: T2, 5-Lipoxygenase (Rattus norvegicus, UniProt P12527); assay: 5-HETE production by RBL-1 high speed supernatant; assay type: biochemical; settings: Table 8A; RBL-1 high speed supernatant
T2 construct: The activities of these enzymes in extracts of RBL-1 cells were assayed; host or cells: RBL-1 cells, disrupted by nitrogen cavitation; 10,000 x g or 100,000 x g supernatant
T2 sequence (P12527 1-673): T1 sequence (P12527 1-673)
Method: as §1, §4, §5

[3] = tested on: Arachidonic Acid-Induced Inflammation of the Mouse Ear; assay: Arachidonic acid-induced mouse ear inflammation; assay type: in vivo, Balb/c mice; settings: for % Inhibition of Ear Swelling: Table 7A, NS = not significant; for % Change / Increase in Ear Thickness at 1 Hour (x 10⁻³ cm): Table 7, p.o.
Excerpt: as §2, §3
Arachidonic acid in acetone (2 mg/20 ul) was applied to the inner surface of the left ear. The thickness of both ears was then measured with a dial micrometer one hour after treatment, and the data were expressed as the change in thickness (10⁻³ cm) between treated and untreated ears.
Test compounds were given orally in 0.5% tragacanth at the times indicated in the text prior to the topical application of arachidonic acid.
Parenteral administration of compound was accomplished by subcutaneous injection of solution as indicated.

[4] = Macrophage, read-out: IC₅₀ production of PGE₂ by inflammatory macrophages
[5] = Table 2, Experiment 1, 12.5 mg/kg, p.o.
[6] = Table 2, Experiment 1, 25 mg/kg, p.o.
[7] = Table 2, Experiment 1, 50 mg/kg, p.o.
[8] = Table 2, Experiment 2, 50 mg/kg, s.c.

Work on `COc1ccc2cc([C@H](C)C(=O)O)ccc2c1` [Naproxen] yielded an IC50 [1, 4] of 1800 nM and an IC50 ([1]; Peritoneal macrophage, read-out: IC₅₀ (»M) production of PGE₂) of 1800 nM.
For `CC(=O)OC[C@H]1O[C@@H]([S-])[C@H](OC(C)=O)[C@@H](OC(C)=O)[C@@H]1OC(C)=O.CCP(CC)CC.[Au+]` [Auranofin], the “PMN x 10⁻⁵/ml (mean ± S.D.)” value ([2]; Table 3, 2 (mg Au/kg), p.o.) was 7.50 ± 1.57 x 10⁻⁵/ml.
In the case of `O=C(c1ccccc1)N1C=CC(c2c(-c3ccc(F)cc3)nc3n2CCS3)C=C1` [Compound 49], the IC50 (5-LO) is reported as 53 µM, the IC50 (5-Lipoxygenase) is reported as 73 µM and the “% Inhibition of Ear Swelling” value ([3]; 50 mg/kg s.c. or i.p.) is reported as 15* %.
`COc1ccc(-c2nc3n(c2-c2ccncc2)CCC3)cc1` [Compound 40, 2-(4-methoxyphenyl)-3-(4-pyridyl)-6,7-dihydro-[5H]-pyrrolo [1,2-a]imidazole] was tested, and the IC50 (5-LO) was 10 µM, the IC50 (5-Lipoxygenase) was 16 µM and the “% Inhibition of Ear Swelling” value ([3]; 50 mg/kg oral dosing (p.o.)) was 83 (p.o.) %.
In the case of `[O-][S+]1CCn2c1nc(-c1ccncc1)c2-c1ccc(F)cc1` (stereo not drawn) [Compound 42], the IC50 (5-LO) is reported as 60 µM, the IC50 (5-Lipoxygenase) is reported as 101 µM and the “% Inhibition of Ear Swelling” value ([3]; 50 mg/kg s.c. or i.p.) is reported as 50*** %.
In the case of `c1ccc([C@H]2CN3CCSC3=N2)cc1` [Levamisole], the “% Change” value ([2]; Table 3, 100 mg/kg, p.o.) is reported as -37^b % and the “PMN x 10⁻⁵/ml (mean ± S.D.)” value ([2]; Table 3, 100 mg/kg, p.o.) is reported as 5.88 ± 2.70 x 10⁻⁵/ml.
`Fc1ccc(-c2nc3n(c2-c2ccncc2)CCC3)cc1` [Compound 39, 2-(4-fluorophenyl)-3-(4-pyridyl)-6,7-dihydro-[5H]-pyrrolo [1,2-a]imidazole] was tested, and the IC50 (5-LO) was 32 µM, the IC50 (5-Lipoxygenase) was 67 µM and the “% Inhibition of Ear Swelling” value ([3]; 50 mg/kg s.c. or i.p.) was 93%.
For `C[C@@H]1C[C@H]2[C@@H]3CCC4=CC(=O)C=C[C@]4(C)[C@@]3(F)[C@@H](O)C[C@]2(C)[C@@]1(O)C(=O)CO` [Dexamethasone], the “% Change” value [2, 5] was -54^b %, the “PMN x 10⁻⁵/ml (mean ± S.D.)” value [2, 5] was 9.1 ± 2.0 x 10⁻⁵/ml and the “% Change” value [2, 6] was -55^b %. The “PMN x 10⁻⁵/ml (mean ± S.D.)” value [2, 6] was 8.8 ± 2.6 x 10⁻⁵/ml, the “% Change” value [2, 7] was -69^b % and the “PMN x 10⁻⁵/ml (mean ± S.D.)” value [2, 7] was 6.1 ± 1.5 x 10⁻⁵/ml. For the same molecule, the “% Change” value ([3]; 25 mg/kg, pretreated at 2 hrs) was -35^c % and the “Increase in Ear Thickness at 1 Hour (x 10⁻³ cm)” value ([3]; 25 mg/kg, pretreated at 2 hrs) was 18.2 ± 4.1 x 10⁻³ cm.
For `CC(C)Cc1ccc(C(C)C(=O)O)cc1` (stereo not drawn) [Ibuprofen, reference compound], the IC50 [1, 4] was 500 nM, the IC50 ([1]; Peritoneal macrophage, Table 10, LPS-stimulated, C. parvum-elicited peritoneal exudate cells, read-out: IC₅₀ (»M) production of PGE₂) was 500 nM and the “% Change” value ([3]; 250 mg/kg) was “+20^b %”. The “Increase in Ear Thickness at 1 Hour (x 10⁻³ cm)” value ([3]; 250 mg/kg) was 30.8 ± 2.0 x 10⁻³ cm.
In the case of `CCOC(=O)N1C=CC(c2c(-c3ccc(F)cc3)nc3n2CCS3)C=C1` [Compound 48], the IC50 (5-LO) is reported as 7 µM, the IC50 (5-Lipoxygenase) is reported as 9 µM and the “% Inhibition of Ear Swelling” value ([3]; 50 mg/kg s.c. or i.p.) is reported as 25*** %.
With `CSc1ccc(-c2nc3n(c2-c2ccc(F)cc2)CCS3)cc1` [Compound 47] the “% Inhibition of Ear Swelling” value ([3]; 50 mg/kg s.c. or i.p.) was 22*** %.
`CC(Cc1ccc(O)c(O)c1)C(C)Cc1ccc(O)c(O)c1` (stereo not drawn) [NDGA, Nordihydroguaiaretic acid] was tested, and the “% Change” value [2, 8] was 41^c % and the “PMN x 10⁻⁵/ml (mean ± S.D.)” value [2, 8] was 5.7 ± 2.1 x 10⁻⁵/ml.
In the case of `COc1ccc(-c2nc3n(c2-c2ccncc2)CC[S+]3[O-])cc1` (stereo not drawn) [Compound 41], the “% Inhibition of Ear Swelling” value ([3]; 50 mg/kg s.c. or i.p.) is reported as 45*** %.
For `CN(C)c1ccc(-c2c(-c3ccc(F)cc3)nc3n2CCS3)cc1` [Compound 10, 5-(4-N,N-Dimethylaminophenyl)-6-(4-fluorophenyl)-2,3-dihydroimidazo[2,1-b]thiazole], the IC50 (5-LO) was 1.5 µM, the IC50 (5-Lipoxygenase) was 5 µM and the “% Inhibition of Ear Swelling” value ([3]; 50 mg/kg s.c. or i.p.) was 17* %.
